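Values below derive from 48-hour exposures of cells grown in 96-well plates, with endpoints linearly interpolated between the two concentrations bracketing the appropriate inhibition level. Abbreviation: GI50, concentration required for 50% inhibition of growth. At the TGI there is no net growth.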

What all share (test): NCI-60 cell line screen, 48 h
For assay [1], the system named is HOP-92 NSCLC.
Assay [2] deals with KM12 colon.
For assay [3], the system named is HT29 colon.
Assay [4] concerns SN12C renal.
The test system of assay [5] is SW-620 colon.
The subject of assay [6] is OVCAR-4 ovarian.
Assay [7] deals with HCT-15 colon.
Assay [8] relates to NCI/ADR-RES ovarian.

Regarding `CCNC(=O)c1cc(/C=C/c2ccc([N+](=O)[O-])o2)nc2ccccc12`, the TGI in assay [1], in assay [2], in assay [3], in assay [4], in assay [5] and in assay [6] was more than 100 µM each time. The TGI in assay [7] and in assay [8] was more than 100 µM throughout.
`COc1cc(/C=C2/C[C@H]3[C@@H]4CC=C5C[C@@H](OC(C)=O)CC[C@]5(C)[C@H]4CC[C@]3(C)NC2=O)cc(OC)c1OC`: the TGI in assay [1] is 52.3 µM; in assay [2] it was more than 100 µM; in assay [3], more than 100 µM; in assay [4], more than 100 µM; in assay [5] it was more than 100 µM; in assay [6], 62.3 µM. For the same compound, the figures for the TGI in assay [7] and in assay [8] were more than 100 µM and 54.4 µM, respectively.
With `CC(C)(Oc1ccc(Cl)cc1)C(=O)N(C(=O)N1CCC(c2ccccc2)CC1)c1ccccc1`, the TGI in assay [1], in assay [2], in assay [3], in assay [4], in assay [5] and in assay [6] was more than 100 µM throughout. For the same compound, the TGI in assay [7] and in assay [8] was more than 100 µM throughout.
Take `COc1ccc(C(SC2C(O)C(CO)OC2n2ccc(N)nc2=O)(c2ccccc2)c2ccc(OC)cc2)cc1` (stereo not drawn): the TGI in assay [1] is 37.3 µM; in assay [2], 71.2 µM; in assay [3], 36.2 µM; in assay [4], 27.5 µM; in assay [5], more than 100 µM; in assay [6] it was 78.2 µM. Further, the TGI is 46.2 µM in assay [7] and 60 µM in assay [8].
As for `Cc1cc(N2CCCC2)nc(N(CCNc2ccnc3cc(Cl)ccc23)Cc2ccco2)n1`, the GI50 in assay [1] is 1880 nM; in assay [2], 3.86 µM; in assay [3], 1680 nM; in assay [4], 3.88 µM; in assay [5] it was 2600 nM; in assay [6] it was 3.22 µM. Besides, the GI50 is 3.19 µM in assay [7] and 2990 nM in assay [8]. Besides, the TGI in assay [1] was 13.2 µM; in assay [2] it was more than 100 µM; in assay [3], more than 100 µM; in assay [4], more than 100 µM; in assay [5], 81.8 µM; in assay [6], more than 100 µM. In addition, the TGI in assay [7] was more than 100 µM; in assay [8] it was 79.6 µM.
For `CC[N+]1(C)CCC(O)(c2ccc(Cl)c(Cl)c2)C(C(=O)c2ccc(Cl)c(Cl)c2)C1` (stereo not drawn), the TGI in assay [1], in assay [2], in assay [3], in assay [4], in assay [5] and in assay [6] was more than 10 µM each time. Moreover, the TGI in assay [7] and in assay [8] was more than 10 µM each time.
In the case of `O=C(Nc1ccccc1)N(CCCCN(Cc1ccccc1)C(=O)Nc1ccccc1)Cc1ccccc1`, the TGI in assay [1], in assay [2], in assay [3], in assay [4], in assay [5] and in assay [6] was more than 100 µM throughout. In addition, the TGI in assay [7] and in assay [8] was more than 100 µM each time.
For the compound `S=C1SCN(Cc2ccco2)CN1c1ccc(Br)cc1`, the TGI is 60.7 µM in assay [1]; 31.7 µM in assay [2]; 39.5 µM in assay [3]; 66.4 µM in assay [4]; 62.3 µM in assay [5]; 37.5 µM in assay [6]. The TGI in assay [7] is 26.9 µM; in assay [8], 77.6 µM.
In the case of `CCOC(=O)c1nc2ccc(C(F)(F)F)cc2nc1Oc1cc(OC)cc(OC)c1`, the TGI is more than 100 µM in assay [1]; more than 100 µM in assay [2]; more than 100 µM in assay [3]; more than 100 µM in assay [4]; more than 100 µM in assay [5]; 95.1 µM in assay [6]. The TGI in assay [7] and in assay [8] was more than 100 µM throughout.
Take `Cc1ccc2c(c1C)C(=O)/C(=C/c1ccccc1C(=O)O)C2`: the TGI in assay [1], in assay [2], in assay [3], in assay [4], in assay [5] and in assay [6] was more than 100 µM throughout. Further, the TGI in assay [7] and in assay [8] was more than 100 µM each time.
For the compound `CC(C)C(OC(=O)c1ccc(NCc2cc(O)ccc2O)cc1)C(C)C`, the TGI came to 1.36 µM in assay [1]; 11.1 µM in assay [2]; 16.6 µM in assay [3]; 11.9 µM in assay [4]; 7.95 µM in assay [5]; 4.33 µM in assay [6]. For the same compound, the TGI came out at 1.77 µM in assay [7] and 6.14 µM in assay [8].
For the compound `O=C(Nc1nc2ccccc2s1)c1cc([N+](=O)[O-])ccc1Cl`, the TGI in assay [1] is more than 38.9 µM; in assay [2], more than 48.1 µM; in assay [3], 65.9 µM; in assay [4], more than 100 µM; in assay [5] it was more than 51.4 µM; in assay [6], more than 100 µM. In addition, the TGI was more than 41.4 µM in assay [7] and more than 76.4 µM in assay [8].
`CCCCCCCCCCCCCCCCCCNc1ccn(C2OC(COP(=O)(O)OCC3OC(n4cc(F)c(NCCCCCCCCCCCCCCCCCC)nc4=O)CC3O)C(O)C2O)c(=O)n1` (stereo not drawn): the TGI in assay [1], in assay [2], in assay [3], in assay [4], in assay [5] and in assay [6] was more than 100 µM in each case. Moreover, the TGI in assay [7] and in assay [8] was more than 100 µM each time.
Take `CC1=NN(c2nc(N)nc(/C(C#N)=C/c3cccn3-c3cc(Cl)cc(Cl)c3)n2)C(C)(C)C1`: the TGI in assay [1], in assay [2], in assay [3], in assay [4], in assay [5] and in assay [6] was more than 100 µM in each case. The TGI in assay [7] and in assay [8] was more than 100 µM each time.
With `C(CCCCc1nnc(N2CCCCC2)o1)CCCc1nnc(N2CCCCC2)o1`, the TGI in assay [1], in assay [2], in assay [3], in assay [4], in assay [5] and in assay [6] was more than 100 µM in each case. Moreover, the TGI in assay [7] and in assay [8] was more than 100 µM each time.

(Values after PubChem BioAssay (NCI).)
